Like-named read-outs stand apart in the source and are kept apart here.
What was measured:
[1] = system: ADP-induced platelet aggregation; assay: Anti-platelet aggregation test in vitro (ADP-induced, rat platelet-rich plasma); assay type: cell-based, SD rats; details: for inhibition at 100 µM: Platelet, 2 μL of 100 μM compound in 300 μL rat PRP, read-out: inhibition rate on ADP-induced platelet aggregation; for onset of anti-aggregation effect after addition to PRP: immediately after addition
Experimental: When healthy adult SD rats were anesthetized by intraperitoneal injection of 10% chloral hydrate, fresh whole blood was collected from the abdominal aorta and added to a centrifuge tube anticoagulated with 3.8% sodium citrate solution, and centrifuged at 900 rpm for 10 minutes to remove the upper platelet-rich plasma (PRP) for use. The tube having PRP removed was further centrifuged at 4000 rpm for 10 minutes, and the upper clarified plasma (PPP) was removed for use. In the experiment, Techlink model LBY-NJ4 4-channel platelet aggregator was used to determine the anticoagulant efficacy of each compound.
Into a sample cup containing 300 μL of PRP, 2 μL of 100 μM PGE1, Compound 1 of Example, Compound 2 of Example and methanol (solvent) were first added. After incubated for different periods (0, 1, 2, 4, 7, 10, 15 min), […], of aggregation inducer 180 μM ADP solution was added. The aggregation rate of each sample was measured, and the inhibitory rate of the compound on ADP-induced platelet aggregation was calculated. Inhibition rate %=(solvent aggregation rate−compound aggregation rate)/solvent aggregation rate×100%

[2] = system: isolated rabbit blood vessels (thoracic aorta vascular ring); assay: Vasodilation test in vitro (isolated aortic ring); assay type: cell-based, New Zealand white rabbits; details: Oryctolagus cuniculus; cumulative addition 0.05-25.6 nM; read-out: diastolic efficacy on isolated rabbit blood vessels, EC50
Experimental: In the experiment, rabbits were selected to prepare isolated aortic ring specimens: New Zealand white rabbits, male, weighing (2.5±0.3) kg. The rabbit was stunned with a blunt instrument, fixed on the rabbit dissecting table, and the thoracic aorta was quickly separated, and placed in a petri dish filled with saturated Kerbs solution (containing NaCl 6.9 g, KCl 0.35 g, MgSO4.7H2O 0.29 g, KH2PO4 0.16 g, NaHCO3 2.1 g, CaCl2 0.28 g, glucose 2 g per 1000 mL) at 37° C. and continuously introduced with mixed gas (95% O2, 5% CO2). The remaining blood in the blood vessel was squeezed out, and the peripheral fat and connective tissue were carefully peeled off, and it was cut into 0.5 cm long arterial rings for use. […]
BL-420S biological function experiment system (Chengdu Techman Technology) was used to record the variation of vascular ring tension. After the vascular ring contraction was stable, prostaglandin E1 and the compounds of the Examples were accumulatively added to successively increase the final mass concentration of prostaglandin E1 in the bath tube to 0.05, 0.1, 0.2, 0.4, 0.8, 1.6, 3.2, 6.4, 12.8, 25.6 nM, and the diastolic efficacies of the vascular ring were recorded.

[3] = 10 min, after 10 minutes of incubation

EC50 [2] | SMILES | inhibition at 100 µM [1, 3] | onset of anti-aggregation effect after addition to PRP ([1]; rat PRP) | duration of anticoagulant effect relative to PGE1 ([1]; rat PRP, versus PGE1) | inhibition at 100 µM ([1]; 4 min, after 4 minutes of incubation)
1.09 nM | CCCCC[C@H](O)/C=C/[C@H]1[C@H](O)CC(=O)[C@@H]1CCCCCCC(=O)OC [Compound 1] | 43.7% | take effect immediately | 2 times | 
 | CCCCC[C@H](O)/C=C/[C@H]1[C@H](O)CC(=O)[C@@H]1CCCCCCC(=O)OCC [Compound 2] | 51.9% | does not take effect immediately |  | 
9.77 nM | CCCCC[C@H](O)/C=C/[C@H]1[C@H](O)CC(=O)[C@@H]1CCCCCCC(=O)O [PGE1, Prostaglandin E1] |  | take effect immediately |  | 4.93%

Reference: US12708604B2, “Lyophilized preparation of prostaglandin E1 methyl ester for injection and production and use thereof” (Xi'an Hanfeng Pharmaceutical Co., Ltd., priority 2018, dated 2026)
